# Measurements from patent US12472261B2, “Conjugated inhibitors of DNA damage response” (ProLynx LLC, priority 2019, dated 2025).
# Key:
# [1] = tested on: MX-1 human triple-negative breast carcinoma cell line; test: Efficacy of PEG-talazoparib conjugates in murine MX-1 xenografts (Example 9); format: in vivo, mice; conditions: MX-1 tumors
# Experimental: The MX-1 human triple-negative breast carcinoma cell line was obtained from Charles River Labs (Frederick, Md).
# Tumor xenografts were established by subcutaneous injection with MX-1 tumor cells (2×10^6 cells in 100 μl of serum free medium mixed 1:1 with Matrigel) into the right flank of female NCr nude mice. When tumor xenografts reached 1000-1500 mm^3 in donor mice, they were resected, divided into even-size fragments (approximately 2.5×2.5 mm), embedded in Matrigel and re-implanted via subcutaneous trocar implantation in receiver mice.
# Solutions of talazoparib (50 μM) were prepared as by adding a solution of talazoparib in DMSO (55 mM, 454 μL) to the oral dosing buffer consisting of 10% dimethylacetamide, 6% solutol, and 84% PBS. Talazaparib content was determined by ε310nm=9872 M^−1cm^−1 in 10% dimethylacetamide, 6% solutol, and 84% PBS Solutions were delivered p.o. at 8.5-19 mL/kg to deliver 0.4 to 0.9 μmol/kg talazoparib. Solutions of PEG-talazoparib (Example 1, R^1=MeSO2, R^7=MeO(CH2)2) containing up to 8 mM talazoparib (2 mM PEG˜[talazoparib]4) were prepared in isotonic acetate (pH 5), sterile filtered through a 0.2 μM syringe filter, and TLZ content was determined by ε310nm=9872 M^−1cm^−1 in 10% dimethylacetamide, 6% solutol, and 84% PBS. Doses were delivered IP at ˜15 mL/kg mL/kg to deliver 15-120 μmol drug/kg.
# Mice bearing MX-1 tumors were dosed when tumors reached ˜100-300 mm^3 in size. Dosing solutions were administered as indicated above. Tumor volumes (caliper measurement: 0.5×(length×width)) and body weights were measured twice weekly. […] Mice bearing large tumors were dosed when tumors reached 1000-3000 mm^3.
# Progressive disease (PD) was classified as PD1 or PD2 based on the tumor growth delay (TGD) values calculated as the number of days to event. For each mouse, TGD was calculated by dividing the time to event by the median time to event in the control group. […] Median times to event were estimated based on the Kaplan-Meier event-free survival distribution.
# [2] = tested on: BRCA1-deficient MX-1 tumors; format: in vivo
# DLD-1 BRCA2^−/− = conditions: daily TLZ×21 days
# KT-10 tumors = conditions: KT-10, 0.1 mg/kg TLZ daily dosing; reference (26); cited from earlier work
# DLD-1 BRCA2^wt/wt = test: Efficacy in murine DLD-1 BRCA2^wt/wt xenografts (Example 10); conditions: QD oral
smiles,measurement,setting,value
"Cn1ncnc1[C@H]1c2n[nH]c(=O)c3cc(F)cc(c23)N[C@@H]1c1ccc(F)cc1 [TLZ, talazoparib]","MCR (number of mice, Houghton analysis)",[1]; dose 0.4 μmol/kg,1
same,"PD2 (number of mice, Houghton analysis)",[1]; dose 0.4 μmol/kg,4
same,"CR (number of mice, Houghton analysis)",[1]; dose 0.7 μmol/kg,2
same,"MCR (number of mice, Houghton analysis)",[1]; dose 0.7 μmol/kg,1
same,"PR (number of mice, Houghton analysis)",[1]; dose 0.7 μmol/kg,2
same,duration of growth suppression,"[2]; MX-1, daily oral 0.4 μmol/kg (0.15 mg/kg)",~3 wks
same,median EFS,"[2]; MX-1, daily oral 0.4 μmol/kg, event = doubling of initial tumor volume",35 days
same,increase in median event free survival,DLD-1 BRCA2^−/−,11 fold
same,response of KT-10 to daily TLZ,KT-10 tumors,maintained CRs over 12 wks
same,median EFS of treated animals vs controls,DLD-1 BRCA2^wt/wt,no increase
same,tumor response,DLD-1 BRCA2^wt/wt,resistant
